In ChEMBL document CHEMBL3507680, “University of Dundee, Gates Library screen for HepG2 cell viability” one finds cytotoxicity data, which are given here for 98 compounds.

The data set in a line: Human HepG2 cell viability assay in 384 well format. The format is toxicity, cell-based. On the set-up: dose 125 nL, time 70.5 hour; concentration not given beside the values. Conditions: HepG2 cells, read-out: Inhibition.

With `COCCc1noc(CN(C)C(=O)C2COc3ccccc3C2)n1` (stereo not drawn), the cytotoxicity at 70.5 h was -5.1%.
To `Cc1cc(CN2CCC(CNC(=O)c3ccc(C#N)cc3)C2)[nH]n1` (stereo not drawn) belongs -0.514%.
Turning to `CC(C)S(=O)(=O)N1CCC(Cc2cccc(C(=O)O)c2)C1` (stereo not drawn), the cytotoxicity at 70.5 h was -4.82%.
Next, `C[C@H](N)C(=O)N1CCC(c2[nH]ncc2-c2ccccc2)CC1`: -4.88%.
To `O=C(c1cccc(S(=O)(=O)NCCc2ccccn2)c1)N1CCOCC1` belongs -2.52%; to `COc1ccc(CN2CCC3(CCCN(C)C3=O)C2)c(Cl)c1OC` (stereo not drawn), 0.156%.
To `COCCN(Cc1sccc1C)C(=O)C1CCCN(C(N)=O)C1` (stereo not drawn) belongs 9.09%.
On to `O=C1CCCN1CCc1noc(-c2ccc3[nH]cnc3c2)n1`, for which the cytotoxicity at 70.5 h is -8.29%.
On to `C/C(=C\c1ccco1)CN(C)C(C)c1ccccn1` (stereo not drawn), for which the cytotoxicity at 70.5 h turned out to be 16.1%.
To `Cc1cccc(OC2CN(C(=O)C3CC(=O)N(C(C)(C)C)C3)C2)c1` (stereo not drawn) belongs -2.82%; to `Cc1cc(C)n(CC(C)NCc2cnc3c(C)cccn23)n1` (stereo not drawn), -2.32%.
To `c1cc(-c2cn[nH]c2)ncc1CN1CCCCC1` belongs -6.79%; to `O=C(NCCc1nc(-c2cccnc2)no1)c1ccc(C2CCCO2)s1` (stereo not drawn), 6.34%; to `COCCN1C[C@H]2CC[C@@H]1CN(C(=O)CCc1n[nH]c(C)c1C)C2`, 6.62%.
Consider `OC(CNc1ccncn1)CN1CCCCCC1` (stereo not drawn), for which the cytotoxicity at 70.5 h was -7.06%.
Next, `O=C1NCCN(Cc2ccccc2)C1CC(=O)N1CCc2n[nH]cc2C1` (stereo not drawn): 19.3%.
To `COCC(NC1CCN(CC(C)C)CC1)c1ccnn1C` (stereo not drawn) belongs -6.73%.
As for `CN(Cc1ccc(-n2cccn2)cc1)c1nc(N)nc2c1CCNCC2`, the cytotoxicity at 70.5 h was 12.6%.
In the case of `O[C@@]1(CNCCCOc2cccnc2)CCCN2CCCC[C@@H]21`, the cytotoxicity at 70.5 h worked out at 5.47%.
For the compound `Cc1cc(N2CCOC(C(F)(F)F)C2)nc(-c2ccccc2O)n1` (stereo not drawn), the cytotoxicity at 70.5 h is -6.3%.
Next, `Cc1cc2nc(C(C)C)cc(N3CCC(Oc4ncccn4)CC3)n2n1`: 48.7%; `CSc1ccc(C(=O)N2C[C@H]3CC[C@@H]2CN(Cc2ccccc2)C3)cc1`: -0.304%; `COCCCN1C(=O)CC[C@H]2CN(c3ccnc4ccccc34)CC[C@H]21`: -5.09%.
Consider `CC(C)Oc1ccc(CN2CCCC(N3CCOCC3)C2)cc1CO` (stereo not drawn), for which the cytotoxicity at 70.5 h is -5.76%.
To `N#Cc1cccc(N2CCC(CO)(CCOc3ccccc3)CC2)n1` belongs -4.29%; to `Fc1ccc2[nH]c(C3CCCN3CCCn3cccn3)nc2c1` (stereo not drawn), -6.03%.
To `Cc1nc(N2CCCOC(Cn3cccn3)C2)c2sccc2n1` (stereo not drawn) belongs -2.92%.
Next, `Cc1cc(C)c2[nH]c(CN3CCCC(N4CCOCC4)C3)cc(=O)c2c1` (stereo not drawn): -5.41%; `COCC(=O)N1CCC2(CCCN(Cc3cc(OC)ccc3F)C2)C1` (stereo not drawn): -7.78%; `CN(CCC(O)c1ccccc1)c1cc(N2CCOCC2)ncn1` (stereo not drawn): -11%.
On to `CSCc1noc(C2CCC(=O)N(CCCN3CCCC3=O)C2)n1` (stereo not drawn), for which the cytotoxicity at 70.5 h is -4.64%.
With `CN(C)c1cnn(CC(=O)N2CCCCCC2)c(=O)c1`, the cytotoxicity at 70.5 h is -0.929%.
Next, `CCc1nc(N)nc(NCCC(=O)N2CCCC2)c1C`: 23.5%; `COCc1nc(CNC(=O)C(C)n2ccnc2C(C)C)no1` (stereo not drawn): -9.39%.
To `O=C(C1CCC1)N1C[C@@H]2CC[C@H](C1)N(S(=O)(=O)c1cccnc1)C2` belongs -5.86%; to `Cn1ccc(C(=O)N2CCC3(CCC(=O)N(C4CCCC4)C3)CC2)n1`, 12.2%.
For the compound `Cc1ccccc1N1CC(C)N(C(=O)CCn2cccn2)CC1=O` (stereo not drawn), the cytotoxicity at 70.5 h came to 15.3%.
Regarding `CCc1ncc2c(n1)CN(C(=O)c1c(C)[nH]c3c1C(=O)CCC3)C2`, the cytotoxicity at 70.5 h was found to be 1.67%.
`CC(C)(CN1CCC(Cc2ccc(CO)cc2)C1)N1CCOCC1` (stereo not drawn): the cytotoxicity at 70.5 h was -10.6%.
Consider `CN(Cc1cc(-c2ccccc2)no1)Cc1nccn1C`, for which the cytotoxicity at 70.5 h came to 9.3%.
With `N[C@H]1CN(S(=O)(=O)N2CCCCCC2)C[C@@H]1c1ccccc1`, the cytotoxicity at 70.5 h came to 20%.
To `COc1ccc(-c2noc(Cn3cc4c(n3)CCC4)n2)c(OC)c1OC` belongs -2.31%; to `COCCN1CCCC2(CCN(C(=O)c3cnc(O)cn3)C2)C1=O` (stereo not drawn), -6.54%.
Next, `CCCn1ncc(-c2nc3c(cnn3CC)[nH]2)c1C`: -7.07%; `O=C(O)CNc1cc(-c2cc(C(=O)NC3CC3)ccn2)c2cc[nH]c2n1`: -0.0958%.
For the compound `Cc1nn(C)cc1-c1ccnc(N(C)Cc2ccc(F)cc2)n1`, the cytotoxicity at 70.5 h is -4.85%.
Next, `CC(C)CN1CC(C(=O)N(C)CCc2cn[nH]c2)CC1=O` (stereo not drawn): -6.49%; `Cc1nc(N2Cc3cnn(Cc4ccc(F)cc4)c3C2)no1`: 13.6%; `COc1ccc(CN2CCN(CC3CC3)[C@@H]3CS(=O)(=O)C[C@@H]32)cc1C`: 10.6%.
Turning to `CCC(NC(=O)C(C)(C)C)c1ccccc1C` (stereo not drawn), the cytotoxicity at 70.5 h came out at 25.3%.
In the case of `COc1ccc(-c2n[nH]cc2CN(C)Cc2nnc(C)o2)c(F)c1`, the cytotoxicity at 70.5 h stood at 1.72%.
Next, `CCC(Oc1ccc(N(C)S(C)(=O)=O)cc1)C(=O)N(C)C` (stereo not drawn): -3.36%.
With `COCCN(C)CCN1CC2(CCN(C3CCCNC3)CC2)OC1=O` (stereo not drawn), the cytotoxicity at 70.5 h is -4.32%.
To `CCCS(=O)(=O)N1CCN(c2ccnc(N3CCCCC3)n2)CC1` belongs -8.56%; to `CN(C)S(=O)(=O)N1CCN(c2ccnc(N3CCCCC3)n2)CC1`, -8.18%.
In the case of `COc1ccccc1NC(=O)c1cc2c([nH]c1=O)CCCC2=O`, the cytotoxicity at 70.5 h was -11.1%.
As to `CCn1c(Cn2cncn2)nnc1C1CCN(CCN)CC1`, the cytotoxicity at 70.5 h was determined as 17.7%.
Next, `CCc1nnc(CN(CC)C(=O)C2CC(=O)N(CC)C2)o1` (stereo not drawn): -1.3%; `CCn1c(CN2CCCC2)nnc1C1CCN(Cc2cccnc2)CC1`: 19.5%; `COc1ccc(NC(=O)Cn2nc(C)c(C)cc2=O)cc1`: 1.99%.
To `CCCN1CCCC1c1ccc(C(=O)N2CCOCC2)s1` (stereo not drawn) belongs 0.549%; to `O=C(NCCCc1ccco1)c1ccc(N2CCOCC2)cc1`, 4.57%.
Next, `COc1ccc2cc(C(=O)N3CC[C@H](CO)[C@H](O)C3)n(C)c2c1`: 2.19%.
Consider `COCCN1C[C@H]2CC[C@@H]1CN(C(=O)c1ccc(Cl)cc1)C2`, for which the cytotoxicity at 70.5 h is -6%.
To `COc1cc(-c2ccc(F)c3c2OC(CN)C3)cc(OC)c1OC` (stereo not drawn) belongs 6.54%; to `CCC(=O)NCc1ccc(N2CCCCC2)cc1`, -2.28%; to `COc1cccc(-n2cc(CN(C)C(=O)c3cnc(O)cn3)cn2)c1`, -9%.
Next, `COc1cccc(OC2CN(C(=O)c3ccoc3C)C2)c1`: 10.7%; `Cn1ncc2c(NC3CCC3)nc(-c3ccncc3)nc21`: -0.235%.
Turning to `COC(=O)N1CCC2(CC1)CC(c1ccccc1)CN(C)C2` (stereo not drawn), the cytotoxicity at 70.5 h is -0.459%.
With `Cc1nc(NCCSc2cnn[nH]2)c2cccnc2n1`, the cytotoxicity at 70.5 h turned out to be 5.69%.
For `CSc1ccc(CN(CCO)Cc2nccn2C)cc1`, the cytotoxicity at 70.5 h was -3.61%.
To `COCCN(C)C[C@@H]1CN(c2cc(C)nc3ccccc23)C[C@@H]1CO` belongs -14.9%.
With `COCCCN1CCN(C(=O)C(c2cccc(F)c2)N(C)C)CC1` (stereo not drawn), the cytotoxicity at 70.5 h was -5.78%.
Next, `Cc1ccsc1CN1CCCC(CNC(=O)c2ccc(N)nc2)C1` (stereo not drawn): -8.08%.
To `CC(C)Cn1cncc1CNC1CCSCC1` belongs 42.7%; to `Cc1cnc(C(=O)N2CCCC(Cn3cc(C4CC4)nn3)C2)cn1` (stereo not drawn), -10.1%.
Next, `COc1ccccc1Oc1ncccc1CNC(=O)C1COC(=O)N1` (stereo not drawn): -14.6%; `CCCSc1ncc(-c2nccn2CCO)cn1`: -12.8%; `COc1cccc(F)c1-c1c[nH]c(C)n1`: 11.7%.
For the compound `O=C(c1cnc(Nc2ccccc2)nc1)N1CCS(=O)(=O)CC1`, the cytotoxicity at 70.5 h was -8.85%.
To `CNC(=O)Cn1c(-c2ccco2)nn(-c2ccccc2OC)c1=O` belongs 9.58%; to `O=C(c1ccc(C2CCCO2)s1)N1CCOCC1` (stereo not drawn), -5.89%.
To `O=C(NCc1cn2c(n1)SCC2)c1ccc(CN2CCCCC2)cc1` belongs 2.13%; to `O=C1NC2(CCN(C/C=C/c3ccccc3)CC2)CC1c1ccccc1` (stereo not drawn), 10.6%.
To `Cc1cc2nc(C(C)C)cc(NCCNc3ncccc3C)n2n1` belongs 12.1%.
On to `CN(C)c1nc2c(c(N3CCC4(CC3)CNC(=O)C4)n1)CCCC2`, for which the cytotoxicity at 70.5 h is -3.91%.
To `CC(C)c1nc(CCN(C)C(=O)C2COc3ccccc3C2)no1` (stereo not drawn) belongs -3.01%; to `CCc1noc(C)c1C(=O)N1C[C@H](NS(C)(=O)=O)[C@@H](C2CC2)C1`, -3.78%; to `CCc1cc(N2CCC(n3cc(C(=O)NCC(C)C)nn3)CC2)ncn1`, 0.723%.
Consider `N[C@@H]1c2ccccc2C2(CCN(C(=O)c3ccccc3O)CC2)[C@H]1O`, for which the cytotoxicity at 70.5 h was -6.11%.
To `c1ccc(Oc2cccc(OC34CCCN(CC3)C4)c2)cc1` (stereo not drawn) belongs -12%.
Next, `Fc1ccc(CCC2CCCN(Cc3c[nH]cn3)C2)c(F)c1` (stereo not drawn): -3.29%; `NC(=O)c1ccc(OCCCN2C[C@H](C3CC3)[C@@H](N)C2)cc1`: -5.8%.
Take `N#Cc1c(C2CC2)cc(-c2ccc(F)c(F)c2)nc1N`: the cytotoxicity at 70.5 h was -3.46%.
To `CNS(=O)(=O)CCNC(=O)[C@@]12CNC[C@@H]1CN(C1CCCC1)C2` belongs -0.951%.
Turning to `COCC(=O)N1CCc2cccc(S(=O)(=O)N3CCN(C)CC3)c2C1`, the cytotoxicity at 70.5 h is -2.39%.
Next, `O=C1CCC(CCC(=O)N2CCCC2c2nccs2)=NN1` (stereo not drawn): 8.6%.
